According to patent US20230391841A1, “MACROCYCLIC PEPTIDES” (Herantis Pharma OYJ, priority 2019, published 2023):
Each block holds one molecule with its values, some of them ahead of it. Bridge positions count the residues as written; N and C are the ends. Ends that are not written are not given here. Peptide text beside a SMILES is read from it.

What was measured:
[1] = In vivo pharmacokinetics after intravenous administration to rats; design: species or system male Sprague-Dawley rats; details: rat, 5 mg/kg intravenous bolus, male Sprague-Dawley rats
Description: The clearance and elimination of peptides can be mediated by multiple processes in vivo, including metabolism and renal elimination.
Test compounds were intravenously (i.v.) administered to male Spraque-Dawley rats (about is six weeks old, n=3 per compound) at 5 mg/kg. Blood samples were collected from jugular vein through implanted in-dwelling catheters (250 pl blood) into labelled polypropylene tubes containing anticoagulant (heparin) at 2 min, 5 min,15 min, 30 min, 1 h, 2 h and 4 h after compound administration and held on wet ice for a maximum of 30 minutes. The blood samples were centrifuged for plasma separation (4 °C, 21100 G, 5 min). Tolbutamide 500ng/ml with 10% TFA in acetonitrile or in MeCN was used as an internal standard solution.
The standard samples were prepared into rat plasma by spiking the matrix into concentrations 2-10 000 ng/ml of the analyte, respectively, and otherwise treated as the samples. To 50 pl aliquots of sample plasma was added 200 pl of internal standard. Samples were mixed (150 rpm, 15 min) and centrifugated (3000 rpm, 15min). The analytical method was optimized for reaction monitoring chromatographic (peak shape & retention) shifts and mass spectrometric properties (ionization efficiency, MS/MS detection). Supernatants were analyzed by UHPLC-TOF mass spectrometry using electrospray ionization.

[2] = test system: dopaminergic TH-positive neurons injured with MPP+; experiment: Neuroprotective effect on dopaminergic TH-positive neurons injured with MPP+ (primary mesencephalic culture); format: cell-based, rat
Description: Neuroprotective effects of compounds 1-26 (SEQ ID NO: 1-26) were tested in an in vitro model in which primary cultures of rat embryonic mesencephalic neurons were stressed with MPP+ , the active metabolite of neurotoxin 1-methyl-4-phenyl-1,2,3,6-tetrahydropyridine (MPTP). MPP+ kills dopaminergic (TH-positive) neurons via a variety of toxic mechanisms, including mitochondrial dysfunction, generation of peroxynitrite, oxidative stress, ER stress and induction of apoptosis.
Culture of mesencephalic neurons. Rat dopaminergic neurons were cultured as described by Visanji et al., 2008. Briefly, the midbrains obtained from 15-day-old rat embryos (Janvier, France) were dissected, and the ventral portion of the mesencephalic flexure, a region of the developing brain rich in dopaminergic neurons, was used for the cell preparations. The midbrain cells were dissociated by trypsinization for 20 min at 37° C. (solution at a final concentration of 0.05% trypsin and 0.02% EDTA). The reaction was stopped by adding Dulbecco's modified Eagle's medium (DMEM) containing DNAase I grade II (0.5 mg/mL) and 10% of fetal calf serum (FCS). Cells were then mechanically dissociated by 3 passages through a 10 ml pipette. Cells were then centrifuged at 180×g for 10 min at +4° C. on a layer of BSA (3.5%) in L15 medium. The cell pellets were re-suspended in a defined culture serum-free medium consisting of Neurobasal (Invitrogen) supplemented with B27 (2%), L-glutamine (2 mM) and 2% of PS solution and 1Ong/ml of Brain-derived neurotrophic factor (BDNF) and 1 ng/mL of Glial-Derived Neurotrophic Factor (GDNF). Viable cells were counted in a Neubauer cytometer using the trypan blue exclusion test. The cells were seeded at a density of 40 000 cells/well in 96 well-plates (pre-coated with poly-L-lysine) and maintained in a humidified incubator at 37° C. in 5% CO2/95% air atmosphere. Half of the medium was changed every 2 days with fresh medium. On 96-wells plates, only 60 wells are used. To avoid any edge effect, the first and last lines and columns were not used for culture and were filled with sterile water.
CDNF as well as linear and macrocyclic compounds […] (SEQ ID NOs: 1-26) were tested. On day 6 of culture, the compounds were dissolved in culture medium and then pre-is incubated with mesencephalic neurons for 4 hours before the MPP+ application. Four hours after the preincubation of the compounds, MPP+ was added to a final concentration of 4 pM, diluted in control medium still in presence of compounds for 48 h.
48 h after intoxication, the cells were fixed by a solution of 4% paraformaldehyde in PBS, pH 7.3 for 20 min at room temperature. The cells were washed twice in PBS, and then permeabilized and non-specific sites were blocked with a solution of PBS containing 0.1% of saponin and 1% FCS for 15 min at room temperature. Next, the cells were incubated with (a) a monoclonal antibody anti-Tyrosine Hydroxylase (TH) produced in mouse at dilution of 1:10000 and with (b) a polyclonal antibody anti-alpha-synuclein (α-syn) antibody produced in rabbit at dilution of 1:400 in PBS containing 1% FCS, 0.1% saponin, for 2 h at room temperature.
48 h after intoxication, the cell culture supernatant was removed, and the cells fixed by a solution of 4% paraformaldehyde in PBS, pH 7.3 for 20 min at room temperature. The cells were washed twice in PBS, and then permeabilized and non-specific sites were blocked with a solution of PBS containing 0.1% of saponin and 1% FCS for 15 min at room temperature. Then, the cells were incubated with a) a monoclonal Anti-Tyrosine Hydroxylase (TH) antibody produced in mouse at dilution of 1:10000 in PBS containing 1% FCS, 0.1% saponin, for 2 hours at room temperature, and b) a polyclonal anti-postsynaptic density protein-95 (PSD-95) antibody produced in rabbit at dilution of 1:200 in PBS containing 1% FCS, 0.1% saponin, for 2 h at room temperature. This antibody stains specifically synapses. […]

[3] = target: GRP78-NBD; experiment: Binding to GRP78-NBD Kd (μM)
Source text: Table printed on a drawing sheet, FIG. 5B
Head of the field: Binding to GRP78-NBD Kd (μM)
GRP78-NBD is shown in a translucent surface model along with its cartoon trace. The Cys-Cys bond in compound 12 (SEQ ID NO: 12) is shown in sticks.
The binding affinities are obtained by a microscale thermophoresis-based cell-free assay.
GSK2606414 was used to inhibit PERK signaling and KIRA6 to inhibit IRE1alpha signaling. * p<0.05, ** p<0.01, *** p<0.001, **** p<0.0001 one-way ANOVA is test with post-hoc Fisher's LSD test for pairwise comparison vs MPP+ negative control. # p<0.05, ## p<0.01, ### p<0.001, #### p<0.0001 one-way ANOVA test with post-hoc Fisher's LSD test for pairwise comparison between effect of compound alone and its combination with UPR signal inhibitor.
Where the first naming reader finds the target: head: Binding to GRP78-NBD Kd (μM)

Molecule: CC[C@H](C)[C@H](NC(=O)[C@H](CCCCN)NC(=O)[C@H](CCCCN)NC(=O)[C@H](CC(C)C)NC(=O)[C@H](CCC(=O)O)NC(=O)[C@H](CCCCN)NC(=O)[C@@H](NC(=O)[C@H](CCCNC(=N)N)NC(=O)[C@H](CC(C)C)NC(=O)[C@H](CCCCN)NC(=O)[C@H](CCCCN)NC(=O)[C@H](CC(C)C)NC(=O)[C@H](CC(=O)O)NC(=O)[C@@H](N)C(C)C)C(C)C)C(=O)N[C@@H](CC(C)C)C(=O)N[C@@H](CC(=O)O)C(=O)N[C@@H](CC(=O)O)C(=O)N[C@@H](Cc1c[nH]c2ccccc12)C(=O)NCC(=O)N[C@@H](CCC(=O)O)C(=O)N[C@H](C(=O)N[C@H]1CSSC[C@@H](C(=O)N[C@@H](C)C(=O)N[C@@H](CCC(=O)O)C(=O)O)NC(=O)CNC(=O)[C@H](CCCCN)NC1=O)[C@@H](C)O [Compound 3] (H-VDLKKLRVKELKKILDDWGETCKGCAE-OH; disulfide 22-25)
- AUC(0-inf) ([1]; in vivo): 4150 ng·h/mL
- MRT ([1]; in vivo): 1.07 min
- Vd ([1]; in vivo): 0.02 L/kg
- half-life ([1]; in vivo): 4.52 min
- clearance ([1]; plasma, read-out: CI): 20.1 mL/min/kg

Molecule: CDNF: full-length cerebral dopamine neurotrophic factor protein (rhCDNF), positive reference in the MPP+ neuroprotection model
- number of α-Syn inclusions (alpha-synuclein aggregates) in TH-positive neurons ([2]; primary rat mesencephalic culture after MPP+ injury): reducing accumulation
- protection of TH-positive neurons, their neurites and synapses from MPP+ toxicity ([2]; primary rat mesencephalic culture, 4 h preincubation, MPP+ 48 h): neuroprotective

Molecule: VDLKKLRVKELKKILDDWGETCKGCAE (disulfide 22-25) [Compound 3]
- Kd [3]: 290 nM

Now from value to molecule:

- Kd [3]: 3210 nM
Molecule: GEECRACAEKT (disulfide 4-7) [Compound 15]

- Kd [3]: 11000 nM
Molecule: KSILDDWGETCKGCAE (disulfide 11-14) [Compound 9]

- Kd [3]: 60 nM
Molecule: VDLRKMRVAELKQILHSWGEECRACAE (disulfide 22-25) [Compound 1]

- Kd [3]: 1080 nM
Molecule: WGETCKGCAEKS (disulfide 5-8) [Compound 13]
